Data on 18 molecules can be found in PubChem BioAssay (NCI).

Holding throughout (experiment): inhibition of tumour cell growth, NCI panel, 48 h
Assay [1] concerns A498 renal.
In assay [2] the test system is BT-549 breast.
Assay [3] has as its system CAKI-1 renal.
The test system of assay [4] is CCRF-CEM leukemia.
Assay [5] relates to K-562 leukemia.
The test system of assay [6] is LOX IMVI melanoma.
Assay [7] has as its system MCF7 breast.
For assay [8], the system named is MDA-N.
Assay [9] deals with NCI-H522 lung.
Assay [10] has as its system PC-3 prostate.
Assay [11] concerns SN12C renal.
Assay [12] concerns SNB-19 CNS.
For assay [13], the system named is SR leukemia.
Assay [14] concerns SW-620 colon.
Assay [15] deals with T-47D breast.
The subject of assay [16] is UACC-257 melanoma.
Assay [17] has as its system EKVX NSCLC.
Assay [18] relates to HS 578T breast.

Each structure is given as a SMILES string.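 Exposure lasted 48 hours, with cells grown in 96-well plates and compounds tested at five concentrations. Definition used: TGI = concentration required for complete inhibition of growth.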

Regarding `COc1ccc(C2c3cn[nH]c3CC3CCCCC32)cc1` (stereo unspecified), the TGI in assay [1] worked out at 23 µM; in assay [2] it was 33.5 µM; in [3], 27.3 µM; in [4] it was 53.9 µM; in assay [5] it was 98.6 µM; in assay [6] it was 31.8 µM. Further, the TGI in [7] was 32.8 µM; in assay [8], 27.9 µM; in assay [9], 36.3 µM; in assay [10] it was 29.8 µM; in assay [11], 33.2 µM; in assay [12], 43.5 µM. The TGI in assay [13] was 57.1 µM; in assay [14] it was 35.4 µM; in assay [15], 19 µM; in assay [16], 45.9 µM.

As for `COc1ccc(C(=O)/C=C/c2ccc(OCCCOc3ccc(/C=C/C(=O)c4ccc(OC)cc4)cc3)cc2)cc1`, the TGI in assay [3], in assay [4], in assay [17], in assay [18], in [5] and in [7] was greater than 100 µM each time. The TGI in [8], in assay [10], in assay [11], in assay [12], in assay [13] and in [14] was greater than 100 µM each time. Besides, the TGI in assay [15] and in [16] was greater than 100 µM throughout.

As to `O=C(O)c1ccccc1CC(Cc1ccc2c(c1)CCC2)C(=O)O` (stereo unspecified), the TGI in [1], in [3], in [4], in [17], in [18] and in assay [5] was greater than 100 µM each time. In addition, the TGI in assay [6], in [7], in [8], in [9], in assay [10] and in [11] was greater than 100 µM throughout. Also, the TGI in assay [12], in assay [13], in [14], in assay [15] and in assay [16] was greater than 100 µM each time.

For the molecule `O=C1NC2c3c(I)sc(I)c3C(O)C2O1` (stereo unspecified), the TGI in assay [1], in assay [3], in assay [4], in assay [17], in assay [18] and in assay [5] was greater than 100 µM in each case. The TGI in assay [6], in assay [7], in [8], in assay [10], in assay [11] and in [12] was greater than 100 µM each time. Further, the TGI in [13], in [14], in assay [15] and in assay [16] was greater than 100 µM throughout.

With `Cc1nc(C)c(C(=O)NNC(=O)C[N+](C)(C)C)cc1C(=O)NNC(=O)C[N+](C)(C)C`, the TGI in assay [1], in assay [2], in assay [3], in assay [17], in assay [6] and in [7] was greater than 100 µM each time. Further, the TGI in [8], in [11], in assay [12], in assay [14], in assay [15] and in [16] was greater than 100 µM each time.

Regarding `CC(c1ccccc1)N1CCN(C(C)c2ccccc2)CC1` (stereo unspecified), the TGI in assay [1], in assay [2], in [3], in [17], in [18] and in assay [5] was greater than 100 µM in each case. The TGI in assay [6], in [8], in assay [9], in assay [10], in assay [11] and in assay [12] was greater than 100 µM each time. The TGI in assay [13], in [14], in [15] and in assay [16] was greater than 100 µM each time.

Take `COc1ccc(-c2nc(SCC(=O)NNC(=S)Nc3ccccc3)[nH]c2-c2ccc(OC)cc2)cc1`: the TGI in assay [1] was 47.9 µM; in assay [2], 57 µM; in assay [3] it was greater than 100 µM; in assay [4], greater than 100 µM; in assay [17], 75.9 µM; in [5], greater than 100 µM. In addition, the TGI was 37.9 µM in [6]; 47.5 µM in assay [7]; 50.3 µM in assay [8]; 42.4 µM in assay [9]; 73.7 µM in [10]; 50.8 µM in assay [11]. Besides, the TGI turned out to be 43.2 µM in assay [12], 91.2 µM in [14], 85 µM in [15] and 44.1 µM in [16].

Turning to `C=C1C(=O)CC2C1CC(=O)/C(C)=C/CCC(C)(O)C2O` (stereo unspecified), the TGI in assay [1] came to 48.4 µM; in assay [3], 3.37 µM; in [4] it was 13.8 µM; in assay [17], 34.3 µM; in assay [18], 26.5 µM; in assay [5], 15.7 µM. The TGI is 11.9 µM in assay [6]; 8.38 µM in assay [7]; 2.86 µM in assay [8]; 3.04 µM in [9]; 23.3 µM in assay [10]; 5.32 µM in [11]. For the same molecule, the TGI is greater than 67.1 µM in assay [12]; greater than 37.6 µM in assay [13]; greater than 33.7 µM in assay [14]; 3.96 µM in [15]; 12.6 µM in [16].

For the molecule `N#CNC(=NCc1ccccc1)N(Cc1ccccc1)Cc1ccccc1`, the TGI in assay [2] was greater than 100 µM; in assay [3], 89.6 µM; in assay [4], greater than 31.6 µM; in assay [5] it was greater than 100 µM; in assay [6], greater than 31.6 µM; in assay [7], greater than 100 µM. Besides, the TGI in assay [8] is greater than 100 µM; in assay [9], greater than 31.6 µM; in assay [10] it was greater than 100 µM; in assay [11] it was greater than 31.6 µM; in assay [12], greater than 100 µM; in assay [13], greater than 72.9 µM. Also, the TGI in assay [14] and in assay [15] was greater than 100 µM each time.

Turning to `O=P(O)(O)C(N=C(Nc1ccccc1)Nc1ccccc1)P(=O)(O)O`, the TGI in [2], in assay [3], in assay [17], in assay [18], in assay [6] and in assay [7] was greater than 100 µM in each case. Besides, the TGI in assay [8], in [9], in [10], in [12] and in assay [16] was greater than 100 µM throughout.

In the case of `C=CCn1c(=O)c(C(=O)Nc2nc(C34CC5CC(CC(C5)C3)C4)cs2)c(O)c2ccccc21`, the TGI in assay [1], in assay [2], in assay [3], in assay [4], in assay [17] and in assay [18] was greater than 100 µM each time. Also, the TGI in assay [5], in assay [6], in [7], in [8], in assay [9] and in assay [10] was greater than 100 µM in each case. Besides, the TGI in assay [11] was greater than 100 µM; in assay [12], greater than 100 µM; in assay [13], greater than 100 µM; in [14] it was greater than 100 µM; in assay [16], 22.4 µM.

In the case of `COc1ccc(C2OC(c3ccncc3)=NN2C)cc1F` (stereo unspecified), the TGI in [1], in [3], in [4], in [17], in assay [18] and in [5] was greater than 100 µM throughout. Further, the TGI in [6], in [7], in assay [8], in assay [9], in assay [10] and in [11] was greater than 100 µM each time. Besides, the TGI in assay [12], in [14], in [15] and in [16] was greater than 100 µM each time.

On to `O=C1c2ccccc2C(=O)N1n1c(Cc2ccc([N+](=O)[O-])cc2)n[nH]c1=O`, for which the TGI in [1], in [2], in assay [3], in [5], in [7] and in assay [8] was greater than 100 µM each time. For the same molecule, the TGI in [9], in assay [10], in [11], in [12], in assay [13] and in assay [14] was greater than 100 µM each time. The TGI in assay [15] and in assay [16] was greater than 100 µM each time.

For `COC(C)(C)C1(O)CC[C@@H](C)CC1=O` (stereo partly specified), the TGI in [1], in [2], in assay [3], in [17], in assay [18] and in assay [7] was greater than 100 µM throughout. In addition, the TGI in assay [8], in assay [9], in assay [10], in assay [11], in assay [12] and in [13] was greater than 100 µM throughout. Further, the TGI in [14] and in [16] was greater than 100 µM each time.

Regarding `O=C(O)[C@H]1CCCN1CP(=O)(O)CN1CCC[C@@H]1C(=O)O`, the TGI in assay [2], in assay [3], in assay [4], in assay [17], in [18] and in assay [5] was greater than 100 µM throughout. Moreover, the TGI in assay [6], in [7], in assay [8], in assay [9], in [10] and in assay [11] was greater than 100 µM throughout. The TGI in assay [12], in assay [14], in assay [15] and in [16] was greater than 100 µM each time.

For `NS(=O)(=O)c1ccc(NC(=S)/N=C/C2=C(O)c3ccccc3C2=O)cc1`, the TGI in [1], in assay [3], in assay [4], in assay [17], in assay [18] and in assay [5] was greater than 100 µM each time. Besides, the TGI in assay [6], in [7], in assay [8], in assay [9], in [10] and in assay [11] was greater than 100 µM each time. For the same molecule, the TGI in [12], in [13], in assay [14], in assay [15] and in assay [16] was greater than 100 µM throughout.

Regarding `BrC(=C(c1ccc(OC2CCCCO2)cc1)c1ccc(OC2CCCCO2)cc1)c1ccccc1` (stereo unspecified), the TGI in assay [1], in assay [3], in assay [4], in assay [17], in assay [18] and in [5] was greater than 100 µM throughout. Besides, the TGI in assay [6], in [7], in assay [8], in [10], in assay [11] and in assay [12] was greater than 100 µM in each case. Also, the TGI in assay [13], in [14], in assay [15] and in assay [16] was greater than 100 µM in each case.

Regarding `CCCCCCCCCCCC[S+](C)C`, the TGI in [1] was 28.1 µM; in assay [2], 7.68 µM; in [3], 10.3 µM; in assay [4] it was 14.5 µM; in assay [17] it was 20.2 µM; in assay [5], 49.4 µM. The TGI in assay [6] worked out at 15.9 µM; in [7], 24.5 µM; in assay [8], 15.5 µM; in assay [9], 15.6 µM; in assay [10] it was 9.92 µM; in [11], 15.3 µM. For the same molecule, the TGI is 20.5 µM in [12]; greater than 100 µM in [13]; 30.2 µM in assay [14]; 3.37 µM in assay [15]; 17.4 µM in assay [16].
